Measured values from the METLIN SMRT retention time set (Domingo-Almenara et al. 2019).

Assay: gradient 5% acetonitrile 3 min, to 50% in 2 min, to 85% in 15 min, held 3 min, 100 µL/min
Conditions: column: Zorbax Extend-C18 2.1 x 50 mm; eluents: water / acetonitrile, 0.1% formic acid
Summary of the method: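 Data were gathered over 3 months by HPLC coupled to a quadrupole time-of-flight mass spectrometer, operated in positive and negative ionization mode. Mixtures of ~100 pure standards ran on a Zorbax Extend-C18 column (2.1 × 50 mm, 1.8 μm) at 100 μL/min, with water and acetonitrile each containing 0.1% formic acid and dead and dwell volumes of 40 μL and 900 μL. Retention time was read from adduct peaks picked by computer and checked manually.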

Row | SMILES | RP-LC retention time [s]
1 | Nc1cc(C2CCN(C(=O)/C=C/c3ccccc3Cl)CC2)no1 | 747
2 | CCc1nc(-c2csc(S(=O)(=O)N3CCCC(C(=O)Nc4ccc(C(C)C)cc4)C3)c2)no1 (stereo not given) | 1210
3 | Cc1ccc(CNC(=O)N2CCC[C@@H]2C(=O)NCc2csc(-c3ccccc3)n2)cc1 | 824
4 | COCCN1CC(CO)C2(CCN(Cc3ccc(Cl)cc3F)CC2)C1 (stereo not given) | 538
5 | CCOc1cc(=O)n2c(c1C(=O)Nc1ccc(SC)cc1)CCCC2 | 754
6 | COC(=O)c1ccccc1NC(=O)N1CCC(C(=O)NCc2csc(-c3ccccc3)n2)CC1 | 902
7 | Cn1cc(C(=O)N2CCN(c3ccccn3)CC2)c2cccnc21 | 566
8 | COc1ccc(S(=O)(=O)N2CCc3c(C(=O)NCCN(C)C)cccc32)cc1 | 635
9 | CCn1c(=O)c(N2CCN(C(=O)Nc3ccc(Br)cc3F)CC2)nc2cccnc21 | 1000
10 | CC(=O)NCc1csc(C2CCN(C(=O)c3cc(F)ccc3F)CC2)n1 | 652
11 | Cc1nc(Nc2ccc(F)cn2)sc1C(=O)NC(C)c1ccccc1 (stereo not given) | 861
12 | CCCN1CCN(CCCNC(=O)c2c(N3CCCC3=O)c3cc(F)ccc3n2CC)CC1 | 602
13 | CCC(C(=O)N1CCN(c2ccccn2)CC1)n1nc(C)c2sc3ccccc3c2c1=O (stereo not given) | 705
14 | O=C(O)C1CCc2sc(C(=O)N3CCCCCC3)cc2C1 (stereo not given) | 746
15 | CC(C)NC(=O)N(C)Cc1nc2cc(C(=O)N3CCCC3)ccc2n1C | 550
16 | COC(=O)c1ncn2c1C(=O)N(Cc1ccc(Cl)cc1)C(C)(C(=O)NC1CCCC1)C2 (stereo not given) | 758
17 | Cc1cc(C)cc(C(=O)N2CCC3(CC2)NC(=O)c2cc(Cl)ccc2N3C)c1 | 850
18 | COc1ccc(CNC(=O)Nc2cccc(-c3ccc(N4CCOCC4)nn3)c2)cc1 | 655
19 | COc1ccc(NC(=O)Cc2c(C)nn(-c3nc(-c4ccc(F)cc4)cs3)c2C)c(OC)c1 | 1160
20 | O=C1NCCCn2cc(S(=O)(=O)N3CCCCCC3)cc21 | 661
21 | COc1ccc(-c2c(C)noc2NC(C)=O)cc1S(=O)(=O)N1CCCC1 | 673
22 | Cc1ccc(C)c2sc(NC(=O)CN(C)S(C)(=O)=O)nc12 | 804
23 | Cc1ccc(C(C)NC(=O)Cn2cc(-c3noc(-c4cccnc4)n3)nc2C)cc1 (stereo not given) | 715

Row | SMILES | RP-LC retention time [s]
24 | O=C(COC(=O)c1cccnc1)Nc1ccc2c(c1)OCO2 | 640
25 | CCc1nc(-c2csc(S(=O)(=O)N3CCCC(C(=O)Nc4cc(C)ccc4OC)C3)c2)no1 (stereo not given) | 1130
26 | COc1ccc(NC(=O)Cn2c(=O)c3cc(C)nn3c3ncccc32)cc1Cl | 724
27 | CCc1ccc(NS(=O)(=O)c2cc3n(c2)CCCN(C)C3=O)cc1 | 739
28 | CN(C)C(=O)c1cccc2c1CCN2C(=O)c1ccc(F)cc1 | 719
29 | Cn1nnnc1SCC(=O)NCCn1nc(-c2cccs2)ccc1=O | 611
30 | CCn1c(N2CCC(C(=O)NCCCOC)CC2)cc(=O)n(C)c1=O | 610
31 | COc1cc(OC)cc(-c2nc(-c3ccc4c(c3)ncn4CCN3CCCCC3)no2)c1 | 680
32 | Nc1ncnc(Nc2ccc(Cl)cc2)n1 | 704
33 | Cc1ccccc1Oc1nccnc1N1CCC(C(=O)NCCC2=CCCCC2)CC1 | 1110
34 | CCNC(=O)C1CCCN(c2nc3ncn(CC(=O)Nc4ccc(Cl)cc4)c(=O)c3s2)C1 (stereo not given) | 704
35 | CC(C)NC(=O)c1c2c(nc3ccccc13)CCC2 | 593
36 | COc1ccc(-c2nnc(SCc3ccc(Br)cc3)o2)cc1 | 1170
37 | COCCNS(=O)(=O)c1cc2c(cc1C)CCN2C(C)=O | 657
38 | COc1ccc(-c2nc(C3CC(=O)N(c4ccc(Cl)cc4)C3)no2)cc1F (stereo not given) | 1030
39 | CCOc1ccc(-c2nc(-c3ccc4oc(CC)nc4c3)no2)cc1 | 1280
40 | O=C(NC1CCN(c2cc(-c3ccc(F)cc3)[nH]n2)C1)c1ccc(F)cc1F (stereo not given) | 736
41 | c1coc(CN2CC(Oc3ccc(-c4noc(C5CC5)n4)cc3)C2)c1 | 684
42 | O=C(O)C(c1ccccc1)n1cnnn1 (stereo not given) | 585
43 | O=C(CN1C(=O)CCCc2cc(S(=O)(=O)N3CCCC3)ccc21)NCc1ccc(F)cc1 | 792
44 | CCOc1ccccc1NC(=O)Cn1ncc2c(c1=O)N(C1CC1)C(=O)CS2 | 775
45 | COc1ccc(CCNc2ncc(C(=O)O)c(C(C)C)n2)cc1OC | 820
46 | O=C(NCCc1csc(-c2ccccc2)n1)[C@H]1CCCN1S(=O)(=O)c1cccc(Cl)c1 | 994

Row | SMILES | RP-LC retention time [s]
47 | CCNC(=O)c1ccc2c(c1)CCN2C(=O)CC | 651
48 | Cc1ccc(CN2C(=O)COC[C@H]2C(=O)NCc2ccco2)cc1 | 737
49 | Fc1ccc(-c2ccc(-c3nn4c(-c5ccco5)nnc4s3)o2)cc1 | 896
50 | Cc1cc(=O)n(Cc2ccc(OC(F)(F)F)cc2)c(Nc2ccc(F)c(F)c2)n1 | 1300
51 | O=C(CN1C(=O)C2CCCN2C(=O)c2ccccc21)c1ccc(Br)cc1 (stereo not given) | 823
52 | COc1ccc(-c2nc(NC(=O)c3ccc(C#N)cc3)sc2C)cc1 | 962
53 | c1ccc(COCCc2noc(C3CN(Cc4ccccc4)C3)n2)cc1 | 693
54 | COc1ccccc1NC(=O)N1CCC(c2nc3ccncc3n2C(C)C)C1 (stereo not given) | 551
55 | CSc1ccc(NC(=O)N2CCN(c3ccc(C(F)(F)F)cn3)CC2)cc1 | 1010
56 | Cc1cc(=O)n(CC(=O)N(C)C2CCCCC2)c(N2CCOCC2)n1 | 656
57 | O=C(Nc1nnc(C2CC(=O)N(c3ccc(F)cc3)C2)o1)c1ccc(Cl)cc1 (stereo not given) | 771
58 | COc1ccc(OC)c(NC(=O)c2ccc3nc(-c4ccccc4)cn3c2)c1 | 762
59 | COc1cccc(-c2[nH]ncc2CN2CCC3(CC2)CC(O)CCO3)c1 (stereo not given) | 576
60 | CCN(CC)CCNC(=O)Cn1c2ccccc2c2cnn(C)c(=O)c21 | 599
61 | CC(C)n1c(N2CCN(C(=O)c3c(F)cccc3F)CC2)cc(=O)n(C(C)C)c1=O | 814
62 | COc1ccc(CCc2nc3nccc(-c4cccs4)n3n2)cc1 | 932
63 | Cc1ccccc1Cn1nc(-c2nc(-c3ccc(F)cc3)no2)ccc1=O | 1130
64 | Cc1cc(N2CCN(S(=O)(=O)c3cc(F)ccc3F)CC2)nc(N2CCOCC2)n1 | 660
65 | CC(C)C(=O)Nc1ccc2nc(N3CCN(Cc4ccccc4F)CC3)cc(C(=O)O)c2c1 | 585
66 | COc1ccc2[nH]cc(CCNCc3ccc(Br)cc3)c2c1 | 764
67 | Cc1nc2ccn(Cc3cccnc3)c(=O)c2cc1C(=O)NCCC1=CCCCC1 | 648
68 | COCCNc1c(-c2cccc(C)c2)nc2sc(C(=O)NC3CC3)c(C)n12 | 602
69 | COc1ccccc1-c1c(C)nn2c(SCC(=O)NCCN(C)C)cc(C)nc12 | 622

Row | SMILES | RP-LC retention time [s]
70 | O=C(CN1C(=O)CC(c2cccs2)=Nc2ccccc21)NCc1ccccc1 | 876
71 | C[C@@H]1CN(C(=O)c2ccsc2)C[C@H]1c1nc(-c2ccccc2)no1 | 935
72 | CCC1(C(=O)Nc2cc(OC)ccc2OC)CCCCC(=O)N1 (stereo not given) | 722
73 | CC(CC(=O)O)CC(=O)Nc1nc(-c2ccccc2)c(-c2ccccc2)s1 (stereo not given) | 927
74 | CN1CCC(NC(=O)C2CCc3sc(C(=O)N4CCOCC4)cc3C2)CC1 (stereo not given) | 606
75 | O=C([C@@H]1C[C@H](F)CN1S(=O)(=O)c1cccc(Cl)c1)N1CCc2ccccc2C1 | 927
76 | Cc1ccc(C)c(S(=O)(=O)N2CCC(n3cnnc3C(C)C)CC2)c1 | 768
77 | C=CCc1cc(OC)c(O)c(C(=O)NCCO)c1 | 735
78 | CC(C)c1nc(-n2cccc2)sc1C(=O)NCc1ccccc1 | 1140
79 | O=c1ccc(-c2ccc3c(c2)OCO3)nn1CCc1nc(-c2ccccc2)no1 | 908
80 | O=C(NCc1ccccc1)c1cn(-c2ccc(-c3nc(C4CC4)no3)cn2)cn1 | 915
81 | CCc1ccc(C2=Nc3cccnc3N(CC(=O)Nc3ccc(C(C)=O)cc3)C(=O)C2)cc1 | 972
82 | Cc1ccc(-c2coc3cc4oc(=O)c(CC(=O)N5CCC(C(N)=O)CC5)c(C)c4cc23)cc1 | 813
83 | O=c1ccn(-c2ccc(Cl)cc2)nc1-c1nc(-c2ccccc2)no1 | 938
84 | COc1ccc(-c2csc(NC(=O)c3ccc(Br)s3)n2)cc1OC | 990
85 | COc1cccc(NC(=O)N2CCc3c(c(-c4nnc(-c5ccc(F)cc5)o4)nn3C)C2)c1 | 833
86 | O=C(NCc1ccc(Br)cc1)C(=O)c1c[nH]c2ccccc12 | 995
87 | Cc1ccccc1NC(=O)CSc1ccc(-n2nccc2C)nn1 | 869
88 | COc1ccccc1-c1nc2nccc(-c3ccncc3)n2n1 | 654
89 | CCCN(C)C(=O)c1ccc2nc(-c3ccc(C)cc3)cn2c1 | 641
90 | O=C(c1ccc2c(c1)CCC(=O)N2Cc1ccccc1)N1CCN(c2ccc(F)cc2)CC1 | 923
